From patent EP0235259B1, “NOVEL TRANSDERMAL ANTI-ANGINAL PHARMACEUTICAL DOSAGE UNIT AND PROCESS FOR ITS ADMINISTRATION” (RUTGERS, THE STATE UNIVERSITY OF NEW JERSEY, priority 1985, dated 1987)
Read-outs that look alike come from different tables or passages of the source.

Tested on: skin from a "hairless" mouse or human cadaver
Experiment: transdermal absorption (skin permeation) of nitroglycerin from polymer matrix dosage units, procedure of Keshary and Chien
Conditions: for Enhancement Factor: Table XIV, 15% W/W nitroglycerin in DC-382 matrix
Source text: Enhancing Factor is defined as the ratio of normalized permeation rate [in mcg/cm²/hr] of a dosage unit of this invention with skin permeation enhancer/the normalized permeation rate of a corresponding dosage unit without enhancer in the adhesive layer.
Pharm., 10 (6) 883-913(1984).

SMILES: CCCCCCCCCCCCCC(=O)OCC(CO)OC(=O)CCCCCCCCCCCCC (racemic) [1,2-Dimyristoyl-RAC-Glycerol]
- Skin Permeation Rate Without: 39.4 ± 4.32 mcg/cm²/hr
- Enhancing Factor (1.6 mg/cm²): 1.03
- Skin Permeation Rate With (1.6 mg/cm²): 40.64 ± 4.27 mcg/cm²/hr

SMILES: CCCCCCCCCCCCCC(=O)OCC(O)COC(=O)CCCCCCCCCCCCC (racemic) [1,3-Dimyristoyl-RAC-Glycerol]
- Skin Permeation Rate Without: 34.1 ± 1.62 mcg/cm²/hr
- Enhancing Factor (1.6 mg/cm²): 0.94
- Skin Permeation Rate With (1.6 mg/cm²): 32.13 ± 6.94 mcg/cm²/hr

SMILES: CCCCCCCCCCCCCC(=O)OCC(O)CO (racemic) [1-Monomyristoly-RAC-Glycerol]
- Skin Permeation Rate With: 29.88 ± 3.84 mcg/cm²/hr
- Skin Permeation Rate Without: 34.1 ± 1.62 mcg/cm²/hr

SMILES: CCCCCCCCCCCCCCCC(=O)OCC(O)CO (racemic) [1-Monopalmitoyl-RAC-Glycerol]
- Skin Permeation Rate Without: 34.1 ± 1.62 mcg/cm²/hr
- Enhancing Factor (1.6 mg/cm²): 0.86
- Skin Permeation Rate With (1.6 mg/cm²): 29.39 ± 1.76 mcg/cm²/hr

SMILES: CCCCCCCCCC(=O)O [Enhancer B, Decanoic acid]
- Enhancing Factor (0.8 mg/cm²): 2.59
- Enhancing Factor (1.59 mg/cm²): 4.11
- Enhancing Factor (3.18 mg/cm²): 4.41

SMILES: CCCCCCCCCCCCCC(=O)OCCC [Enhancer C, Propyl myristate]
- Enhancing Factor (0.8 mg/cm²): 1.67
- Enhancing Factor (1.59 mg/cm²): 1.92
- Enhancing Factor (3.18 mg/cm²): 3.07
- Enhancing Factor (4.78 mg/cm²): 3.41

SMILES: CCCCCCCC/C=C\CCCCCCCC(=O)OCCC [Enhancer D, Propyl oleate]
- Enhancing Factor (0.8 mg/cm²): 1.22
- Enhancing Factor (1.59 mg/cm²): 2.43
- Enhancing Factor (3.18 mg/cm²): 3.08
- Enhancing Factor (4.78 mg/cm²): 3.78

SMILES: CCCCCCCC/C=C\CCCCCCCCO [Enhancer E, Oleyl alcohol]
- Enhancing Factor (0.8 mg/cm²): 1.69
- Enhancing Factor (1.59 mg/cm²): 2.82
- Enhancing Factor (3.18 mg/cm²): 2.65

SMILES: CCCCCCCCCC[S+](C)[O-] (centres unmarked) [Enhancer G, Decylmethyl sulfoxide]
- Enhancing Factor (0.8 mg/cm²): 1.61
- Enhancing Factor (1.59 mg/cm²): 1.87
- Enhancing Factor (2.4 mg/cm²): 2.02
- Enhancing Factor (5 mg/cm²): 1.36
- Enhancing Factor (10 mg/cm²): 1.22

SMILES: CCCCCCCCCCCCCC(=O)N(C)C [Enhancer H, Myristic acid, N,N-dimethylamide]
- Enhancing Factor (0.8 mg/cm²): 1.3
- Enhancing Factor (1.59 mg/cm²): 2.0
- Enhancing Factor (3.18 mg/cm²): 1.6
- Enhancing Factor (4.78 mg/cm²): 1.5

SMILES: O=[N+]([O-])OCC(CO[N+](=O)[O-])O[N+](=O)[O-] [NITROGLYCERIN, nitroglycerin, reference compound]
- Enhancement Factor (enhancers (mg/cm²): (+) menthol 0.8 + capric acid 0.8 + Methyl Salicylate 0.8): 3.36
- Enhancement Factor (enhancers (mg/cm²): (+) menthol 0.8 + capric acid 0.8 + Oleyl alcohol 0.8): 5.29
- Enhancement Factor (enhancers (mg/cm²): (+) menthol 0.8 + capric acid 0.8 + Oleyl alcohol 1.6): 4.61
- Enhancement Factor (enhancers (mg/cm²): (+) menthol 0.8 + capric acid 0.8 + Salicylic acid 0.8): 3.47
